# According to article PMC11254100 (Angewandte Chemie (International ed. in English), 2024):
# Test system: anti-HA mAb clone 12ca5
# Type: binding
row,Substance,enrichment in affinity selection
1,cyclo(GDAGPYDADYA),enriched
2,cyclo(GDVGPDAYDYA),enriched
3,cyclo(GDVWALYASYA),not enriched in the selection
